Data set [1] relates to Rattus norvegicus. Description: Anti-inflammatory activity inRattus norvegicus albino (rat) assessed as inhibition of carrageenan-induced paw edema at 100 mg/kg, po administered 3 hr prior challenge measured after 1 hr post challenge. It is filed as functional.
Data set [2] deals with Rattus norvegicus. Description: Anti-inflammatory activity inRattus norvegicus albino (rat) assessed as inhibition of carrageenan-induced paw edema at 100 mg/kg, po administered 2 hr prior challenge measured after 1 hr post challenge. The data set is classed as functional.
For data set [3], the system named is Rattus norvegicus. Description: Anti-inflammatory activity inRattus norvegicus albino (rat) assessed as inhibition of carrageenan-induced paw edema at 100 mg/kg, po administered 1 hr prior challenge measured after 1 hr post challenge. It is filed as functional. On the technique in general: In the carrageenan paw model, swelling and tenderness develop within hours.

Data set [4] concerns Rattus norvegicus. Briefly: Toxicity inRattus norvegicus albino (rat) assessed as ulcerogenicity at 100 mg/kg, po measured after 1 hr. As to conditions: in vivo. The data set is classed as organism-based. The arrangement: dose 100 mg/kg, route oral.

The values below come from ChEMBL document CHEMBL3045129, “Synthesis and anti-inflammatory activity of some pyrazole derivatives” (Med Chem Res, 2012).

By inhibition in vivo is commonly meant the relative decrease from the control value, in per cent.

On to `Cc1cc(-c2ccc(Cl)cc2)n(Cc2n[nH]c(=S)o2)n1`, for which the inhibition in vivo at 100 mg/kg turned out to be 39.2% in the data set on Rattus norvegicus [1], 31.2% in the data set with Rattus norvegicus [2] and 15.4% with Rattus norvegicus [3].

Turning to `Cc1cc(-c2ccc(Cl)cc2)n(-c2ccc(S(N)(=O)=O)cc2)n1`, the UI with Rattus norvegicus [4] was found to be 5.2. Further, the results for the inhibition in vivo at 100 mg/kg in the data set with Rattus norvegicus [1], in the data set on Rattus norvegicus [2] and in the data set on Rattus norvegicus [3] were 62.5%, 49.8% and 37.2%, respectively.

Regarding `Cc1cc(-c2ccc(Cl)cc2)n(-c2ccc(S(=O)(=O)Nc3nccs3)cc2)n1`, the inhibition in vivo at 100 mg/kg with Rattus norvegicus [1] came to 62%; with Rattus norvegicus [2] it was 44.3%; in the data set on Rattus norvegicus [3] it was 34.1%.

Consider `Cc1cc(C)n(Cc2n[nH]c(=S)o2)n1`, for which the values for the inhibition in vivo at 100 mg/kg in the data set on Rattus norvegicus [1], in the data set with Rattus norvegicus [2] and with Rattus norvegicus [3] were 34.9%, 21.5% and 14.4%, respectively.

For `Cc1cc(-c2ccccc2)n(Cc2n[nH]c(=S)o2)n1`, the values for the inhibition in vivo at 100 mg/kg in the data set with Rattus norvegicus [1], in the data set with Rattus norvegicus [2] and in the data set with Rattus norvegicus [3] were 48.7%, 34.2% and 26.3%, respectively.

Take `Cc1cccc(NC(=S)NNC(=O)Cn2nc(C)cc2C)c1`: the figures for the inhibition in vivo at 100 mg/kg in the data set on Rattus norvegicus [1], in the data set with Rattus norvegicus [2] and in the data set with Rattus norvegicus [3] were 40.8%, 22.9% and 12.3%, respectively.

With `COc1ccc(NC(=S)NNC(=O)Cn2nc(C)cc2C)cc1`, the inhibition in vivo at 100 mg/kg amounted to 46.4% in the data set on Rattus norvegicus [1], 41.4% in the data set on Rattus norvegicus [2] and 30.3% in the data set on Rattus norvegicus [3].

For the compound `Cc1cc(C)n(CC(=O)NNC(=S)Nc2ccc([N+](=O)[O-])cc2)n1`, the UI in the data set on Rattus norvegicus [4] is on record as 18.6. In addition, the inhibition in vivo at 100 mg/kg in the data set on Rattus norvegicus [1] was determined as 62.7%; with Rattus norvegicus [2], 44.4%; in the data set with Rattus norvegicus [3], 36.1%.

With `Cc1cccc(-n2c(Cn3nc(C)cc3C)n[nH]c2=S)c1`, the values for the inhibition in vivo at 100 mg/kg in the data set with Rattus norvegicus [1], with Rattus norvegicus [2] and with Rattus norvegicus [3] were 33.4%, 22.7% and 13.2%, respectively.

For `Cc1cc(C)n(Cc2n[nH]c(=S)n2-c2ccc([N+](=O)[O-])cc2)n1`, the inhibition in vivo at 100 mg/kg is 36.4% in the data set on Rattus norvegicus [1], 27.1% in the data set on Rattus norvegicus [2] and 16.6% in the data set with Rattus norvegicus [3].

On to `Cc1cc(C)n(Cc2nnc(Nc3ccc([N+](=O)[O-])cc3)s2)n1`, for which, in the data set with Rattus norvegicus [4], the UI was determined as 15.6. Besides, the inhibition in vivo at 100 mg/kg in the data set on Rattus norvegicus [1] was found to be 64.9%; in the data set on Rattus norvegicus [2], 50%; with Rattus norvegicus [3], 37.5%.

On to `CCCNc1nnc(Cn2nc(C)cc2-c2ccccc2)s1`, for which the inhibition in vivo at 100 mg/kg is 54.1% in the data set on Rattus norvegicus [1], 42.2% with Rattus norvegicus [2] and 26.9% in the data set with Rattus norvegicus [3].

With `Cc1cc(-c2ccc(Cl)cc2)n(Cc2nnc(Nc3ccc([N+](=O)[O-])cc3)s2)n1`, the inhibition in vivo at 100 mg/kg with Rattus norvegicus [1] is 61.1%; in the data set on Rattus norvegicus [2], 45%; in the data set on Rattus norvegicus [3], 32.8%.

Take `Cc1ccc(-c2cc(C(F)(F)F)nn2-c2ccc(S(N)(=O)=O)cc2)cc1` [CELECOXIB]: the figures for the inhibition in vivo at 100 mg/kg in the data set with Rattus norvegicus [1], with Rattus norvegicus [2] and in the data set on Rattus norvegicus [3] were 63.8%, 45.8% and 31.4%, respectively.

Regarding `COc1ccc2c(c1)c(CC(=O)O)c(C)n2C(=O)c1ccc(Cl)cc1` [INDOMETHACIN], the UI in the data set on Rattus norvegicus [4] amounted to 20.4. The inhibition in vivo at 100 mg/kg in the data set with Rattus norvegicus [1] worked out at 60.8%; with Rattus norvegicus [2] it was 40.1%; with Rattus norvegicus [3], 31.5%.
